In article PMC2652713, “Molecular Blocking of CD23 Supports Its Role in the Pathogenesis of Arthritis” (PLoS ONE, 2009):
“Also recorded” adds a separate entry of the source.

What was measured:
[1] = system: iNOS mRNA in human CD23+ monocyte-derived macrophages; experiment: iNOS mRNA expression (RT-PCR) in CD23-activated human macrophages; assay type: cell-based; conditions: CD23-McAb 20 µg/ml, 1 h pre-incubation with 10 µg/ml peptide, versus HPRT mRNA
Experimental: Figure 2 Inhibition of CD23-mediated activation of iNOS pathway in human macrophages by p30A. Human CD23^+ monocyte-derived macrophages were incubated with cross-linking CD23-McAb (20 µg/ml) alone or following 1 h pre-incubation with 10 µg/ml of various peptides. […] Expression of iNOS mRNA was compared to HPRT mRNA levels. (B) Inhibition of NO generation from human activated macrophages by synthetic peptides. Cell supernatants were collected 72 h following cell cultures and levels of nitrites were determined. […] Results are expressed as mean of 3 distinct donor cell preparations (SEM<20%). (C) Inducible NOS-mediated NO generation in human macrophages is decreased following pre-incubation with p30A or L-NIL prior to CD23-mediated activation. Results are expressed as mean±s.d. of 7 distinct donor cell preparations.
Monocytes or macrophages were activated through CD23 pathway: while monocytes/macrophages from RA patients express CD23, monocytes from healthy donors must be pre-activated to express surface CD23 as described. […] Cells supernatants were then analyzed for their nitric oxide content (see below) and for the presence of cytokines: levels of TNF-α and IL-6 were determined in duplicates for each sample by a specific ELISA (R&D, Paris, France) while levels of IL-1β, IL-8 and IL-10 was determined using FlowCytomix Human Th1/Th2 Kit as recommended (Bender Medsystems, Vienna, Austria). […]

[2] = system: adjuvant-induced arthritis in rats; experiment: Histopathologic analysis of AIA lesions; assay type: in vivo, rat, Female Lewis; conditions: 50 days after AIA induction
Experimental: Figure 6 Inhibition of in vitro and in vivo inflammatory responses in rats by p30A peptide. (A) Rat peritoneal macrophages were activated via CD23 antigens with/without p30A, L-NIL or pCtl. Cell supernatants were collected 48 h later and nitrite levels were quantified. Values are mean±s.d. of cells from 3 different rats. (B) Cumulative clinical score/rat obtained following 50 days post-immunization in all groups. AIA rats were treated either after or before (d0) the onset of symptoms. Treatment consisted of p30A, hydrocortisone (HC, 30 mg/rat)) or pCtl (100 mg/rat). Shown are means of cumulative score/rat±s.d. from 5 (HC) or 8 rats (other conditions). […]
Adjuvant arthritis was induced in six week-old animals by subcutaneous injection at the base of the tail of 300 µl containing 1.8 mg of inactivated Mycobacterium butyricum (Difco Laboratories, Detroit, MI) diluted in emulsion of 8 ml Vaseline, 1 ml polysorbate 80, and 1 ml PBS (Phosphate Buffer Saline, Eurobio). […] The severity of AIA in each paw was quantified daily using an ordinal clinical score measurement from 0 to 4 as follows: no signs of inflammation ( = 0); swelling alone (>2 fold paw diameter) ( = 1) or swelling/immobility ( = 2) of one paw; swelling ( = 3) or swelling/immobility ( = 4) of two paws. Weight evolution of rats was measured daily. […]

## FHENWPS [p30A]
[1]
  iNOS-encoding mRNA level: reduced the levels of inducible nitric oxide synthase (iNOS)-encoding mRNA; also recorded: decreased in cells pre-incubated with p30A
[2]
  components of AIA arthritic lesions (pannus formation and synovium inflammation, joint/bone deformity, bone remodeling and destruction, bone neoformation, cartilage destruction): significantly decreased all components of AIA arthritic lesions
